Assay results from publication PMC4030036, “Small molecule kinase inhibitor LRRK2-IN-1 demonstrates potent activity against colorectal and pancreatic cancer through inhibition of doublecortin-like kinase 1” (Molecular Cancer, 2014).

Key:
MiaPaCa-2 = experiment: cells; set-up: MTT proliferation assay, sigmoidal dose-response fit, colon and pancreatic cancer cell lines; settings: Homo sapiens, MIA PaCa-2; 48 h MTT
DLD-1 = experiment: cells; set-up: MTT proliferation assay, sigmoidal dose-response fit, colon and pancreatic cancer cell lines; settings: Homo sapiens, DLD-1; 48 h MTT
SW1990 = experiment: cells; set-up: MTT proliferation assay, sigmoidal dose-response fit, colon and pancreatic cancer cell lines; settings: Homo sapiens, SW1990; 48 h MTT
HT-29 = experiment: cells; set-up: MTT proliferation assay, sigmoidal dose-response fit, colon and pancreatic cancer cell lines; settings: Homo sapiens, HT-29; 48 h MTT
[1] = target: T1, Doublecortin-like kinase 1 (DCLK1) (Homo sapiens, UniProt O15075); experiment: in vitro kinase assay (Kinase-Glo luminescence) with purified active DCLK1, autocamtide II substrate and […] ATP; format: biochemical
T1 sequence (O15075 1-740): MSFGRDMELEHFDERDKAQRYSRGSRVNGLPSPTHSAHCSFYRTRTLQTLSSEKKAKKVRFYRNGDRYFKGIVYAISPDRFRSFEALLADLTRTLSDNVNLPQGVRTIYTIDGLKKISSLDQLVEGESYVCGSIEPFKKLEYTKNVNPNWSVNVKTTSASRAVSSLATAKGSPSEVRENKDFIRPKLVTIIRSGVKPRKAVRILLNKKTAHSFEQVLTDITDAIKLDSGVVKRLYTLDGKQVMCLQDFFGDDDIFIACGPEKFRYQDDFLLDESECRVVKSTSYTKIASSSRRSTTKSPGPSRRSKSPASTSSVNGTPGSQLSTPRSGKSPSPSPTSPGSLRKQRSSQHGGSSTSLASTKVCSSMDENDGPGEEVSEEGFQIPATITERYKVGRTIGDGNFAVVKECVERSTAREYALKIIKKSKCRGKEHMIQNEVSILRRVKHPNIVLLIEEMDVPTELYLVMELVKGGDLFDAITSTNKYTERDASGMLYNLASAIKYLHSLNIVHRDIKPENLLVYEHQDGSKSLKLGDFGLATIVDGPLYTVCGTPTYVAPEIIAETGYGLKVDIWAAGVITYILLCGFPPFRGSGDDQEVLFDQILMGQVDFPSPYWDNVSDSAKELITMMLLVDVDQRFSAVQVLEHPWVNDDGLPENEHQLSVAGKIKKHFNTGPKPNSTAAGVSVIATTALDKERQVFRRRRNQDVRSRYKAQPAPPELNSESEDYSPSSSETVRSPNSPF

`COc1cc(C(=O)N2CCC(N3CCN(C)CC3)CC2)ccc1Nc1ncc2c(n1)N(C)c1ccccc1C(=O)N2C` [LRRK2-IN-1] was tested, and the IC50 (MiaPaCa-2) was 2010 nM, the IC50 (DLD-1) was 3.22 µM and the IC50 (SW1990) was 5.19 µM. For the same molecule, the IC50 (HT-29) was 2070 nM and the IC50 [1] was 2.61 nM.
